Assay results as given in publication PMC5467147, “Identification of a Peptide for Systemic Brain Delivery of a Morpholino Oligonucleotide in Mouse Models of Spinal Muscular Atrophy” (Nucleic Acid Therapeutics, 2017).

What was measured:
[1] = system: SMN2 pre-mRNA exon 7; experiment: In vivo screening of P-PMOs in neonatal SMA mice at PND4, full-length SMN2 by RT-qPCR; design: species or system mouse; settings: facial vein at PND4, 2.66 nmol P-PMO, harvest 7 days after treatment, normalized to total SMN2, relative to saline, mean ± SEM, n = 4–6
[2] = system: patients; settings: human, in vivo; cited from earlier work
[3] = system: severe SMA (Smn1tm1Hung/tm1Hung;SMN2tg/o) mice; experiment: Survival and phenotype of severe newborn SMA mice treated at PND0 and PND2; type: in vivo, mouse; settings: severe SMA pups
Procedure: Experiments were carried out in the Biomedical Sciences Unit, University of Oxford, according to procedures authorized by the UK Home Office and approved by the Unit Approval Board. Experiments were carried out using the SMA-like mouse strain FVB.Cg-Smn1^tm1HungTg(SMN2)2Hung/J. For the purposes of welfare, the peptide screen was carried out on hemizygotic (Smn1^tm1Hung/wt;SMN2^tg/tg) pups generated as previously described. Each litter (n = 4–6 per P-PMO) at PND4 was injected with P-PMO (2.6 nmol) in 10–15 μL of 0.9% saline. The control litter was injected with 0.9% saline. Neonatal mice were euthanized 7 days postinjection and brains, kidneys, and quadriceps were extracted and frozen on dry ice before RNA extraction. The Br-ApoE (K→A)-PMO and Br-ApoE (K→A)-scrambled PMO were further analyzed in homozygotic pups (Smn1^tm1Hung/tm1Hung;SMN2^tg/o) generated as previously described. Pups used for phenotype assessment were injected with 10 μg/g (1 nmol) Br-ApoE (K→A)-PMO, Br-ApoE (K→A)-scrambled PMO, SMA-PMO through the facial vein at PND0 and PND2. Treated animals were weighed daily and observed for survival longevity. A humane endpoint was determined by mobility and weight. Animals who had reached their humane endpoint were euthanized by rising CO2.
Pups were also tested from PND2 to PND12 for hindlimb strength and […]. Hindlimb strength was scored using a hindlimb suspension (HLS) test developed by PsychoGenics, Inc. and described in the standardized protocols and procedures for preclinical studies by TREAT-NMD. The HLS score relates to the position of the legs and tail of pups suspended by their hindlimbs onto the lip of a 50-cc test tube. A score of 0 − 4 is given with the 0 relating to the weakest phenotype (feet clasped and tail down) and a 4 given to the strongest phenotype (legs spread and tail up). For the purposes of reproducibility, factors such as leg pulls and time were left out of the analysis. Righting reflex was measured by placing pups on their back and timing their ability to right themselves onto all four paws.

[4] = system: SMNΔ7 mice; settings: newborn SMNΔ7 mice, single ICV injections (27, 54, and 81 μg) at P0; cited from earlier work
Procedure: PMO is used in several clinical and preclinical studies due to its high stability and low toxicity. The PMO sequence PMO20, also known as HSMN2Ex7D(−10,-29), has been previously studied by Porensky et al.. Single ICV injections (27, 54, and 81 μg) of this PMO in newborn SMNΔ7 mice at P0 increased the levels of both full-length SMN2 RNA transcript in the brain and spinal cord as well as SMN protein and yielded an increased survival of >100 days. In a similar study, Zhou et al. used the same PMO sequence [PMO20 (−10, −29)] as well as PMO18 (−10, −27) and PMO25 (−10, −34 ...

Substance: AngioPep-2
- full-length SMN2 transcript, Brain [1]: 1 ± 0.03
- full-length SMN2 transcript, Kidney [1]: 1.07 ± 0.07
- full-length SMN2 transcript, Quad (quadriceps) [1]: 1.24 ± 0.1

Substance: Nusinersen
- patients who developed side effects such as headache, back pain, and postlumbar puncture syndromes [2]: 32 % of patients

Substance: SMA-PMO: unconjugated 20-mer PMO for SMN2 exon-7 inclusion, 5′-ATTCACTTTCATAATGCTGG-3′ (all phosphorodiamidate morpholino (PMO))
- age range (survival) ([3]; 10 μg/g facial vein at PND0 and PND2, days by b51, saline 6–13): 11–49
- median survival ([3]; two doses of 10 mg/kg (10 μg/g) facial vein at PND0 and PND2, saline 10.5 days): 29 days
- hindlimb strength (hindlimb suspension tube test) ([3]; two doses of 10 mg/kg at PND0 and PND2, PND2 to PND12): gradual decline in muscle strength
- full-length SMN2 transcript, Brain [1]: 1 ± 0.02
- full-length SMN2 transcript, Kidney [1]: 1 ± 0.04
- full-length SMN2 transcript, Quad (quadriceps) [1]: 1.25 ± 0.05
- survival [4]: > 100 days
